Tested on: parasite
Test: Parasite LDH growth assay (Parasite Assay)
Format: cell-based, Plasmodium falciparum
Details: Plasmodium falciparum, 72 h, ring stage parasites, 72 hours growth at 37° C., LDH readout of parasite growth
Experimental: Assessing Antiparasite Potency in a Parasite LDH Growth Assay (Parasite Assay) The parasite stock was maintained at 4% haematocrit in RPMI-Hepes media 30 buffered with sodium bicarbonate and supplemented with 5% heat inactivated human serum and 0.5% albumax. Approximately 42 hours prior to the potency assay being set up, parasites were synchronized with 5% sorbitol to select for ring stage parasites. On the day of assay set up, a blood smear of the parasite culture was Giemsa stained and counted. The parasitemia was 35 adjusted to 0.7% rings and the haematocrit was diluted to 2% in RPMI-Hepes media buffered with sodium bicarbonate and supplemented with 5% heat inactivated human serum and 0.5% albumax. 30 ul of diluted parasites are then added into 10 μl of media+compound in pre-prepared Greiner TC assay plates. Parasite assay plates were placed in gassed humidified boxes in single layer and allowed to incubate at 37° C. for 72 hours. After 72 hours growth, assay plates are sealed with parafilm and frozen flat, in single file at −80° C. overnight. On the following day, assay plates were allowed to thaw at room temperature for 4 hours to which an LDH assay was performed to measure parasite growth.

Structure (SMILES)	EC50
CC[C@]12CCCCCCc3ccc4c(c3)OC(C)(C)C[C@@H]4NC(=O)c3ccc4c(c3)[C@@H](CCO4)N(C(=N)N1)C(=O)C2 [Example 14, (1R,5R,20S)-5-ethyl-3-imino-18,18-dimethyl-17,27-dioxa-2,4,21-triazahexacyclo[21. 6.2.22,5.112,16.015, 20.026,30] tetratriaconta-12(32),13,15,23, 25,30-hexaene-22,34-dione]	34 nM
CCC12CCCCCc3ccc4c(c3)[C@H](CC(C)(C)O4)NC(=O)c3ccc4c(c3)[C@@H]([C@H](COC)CO4)N(C(=N)N1)C(=O)C2 (stereo partly drawn) [Example 16A, (1R,18S,27R)-5-ethyl-3-imino-27-(methoxymethyl)-16,16-dimethyl-15,25-dioxa-2,4,19-triazahexacyclo[19. 6.2.22,5.211,14.013, 18.024,28] tritriaconta-11,13,21,23,28,30-hexaene-20,33-dione]	61.5 nM

— patent US20250066379A1, “ANTIMALARIAL AGENTS” (Merck Sharp & Dohme LLC, priority 2021, published 2025)
